The values that follow come from ChEMBL document CHEMBL5029145, “Discovery of AZD8154, a Dual PI3Kγδ Inhibitor for the Treatment of Asthma” (J Med Chem, 2021).

≈ marks a conversion by molar mass, not a printed value. Calls of active or inactive are those of the source. No cut-off for these calls is given here. Bounds are passed on as bounds.

Series [1] deals with T1, Phosphatidylinositol 4,5-bisphosphate 3-kinase catalytic subunit delta isoform/gamma isoform (Homo sapiens) (UniProt P48736+O00329). Kind of series: Inhibition of PI3kgamma/delta in anti-CD2/3/28-stimulated human PBMC cells derived from asthmatic patient assessed as reduction in IL-17 release pre-incubated for 1 hr followed by anti-CD2/3/28 stimulation measured after 24 hrs by flow cytometry. The series is classed as cell-based. Conditions: time 25.0 hrs. Background: A flow cytometer gives signals particle by particle.
T1 sequence (O00329 whole entry, looked up, canonical isoform): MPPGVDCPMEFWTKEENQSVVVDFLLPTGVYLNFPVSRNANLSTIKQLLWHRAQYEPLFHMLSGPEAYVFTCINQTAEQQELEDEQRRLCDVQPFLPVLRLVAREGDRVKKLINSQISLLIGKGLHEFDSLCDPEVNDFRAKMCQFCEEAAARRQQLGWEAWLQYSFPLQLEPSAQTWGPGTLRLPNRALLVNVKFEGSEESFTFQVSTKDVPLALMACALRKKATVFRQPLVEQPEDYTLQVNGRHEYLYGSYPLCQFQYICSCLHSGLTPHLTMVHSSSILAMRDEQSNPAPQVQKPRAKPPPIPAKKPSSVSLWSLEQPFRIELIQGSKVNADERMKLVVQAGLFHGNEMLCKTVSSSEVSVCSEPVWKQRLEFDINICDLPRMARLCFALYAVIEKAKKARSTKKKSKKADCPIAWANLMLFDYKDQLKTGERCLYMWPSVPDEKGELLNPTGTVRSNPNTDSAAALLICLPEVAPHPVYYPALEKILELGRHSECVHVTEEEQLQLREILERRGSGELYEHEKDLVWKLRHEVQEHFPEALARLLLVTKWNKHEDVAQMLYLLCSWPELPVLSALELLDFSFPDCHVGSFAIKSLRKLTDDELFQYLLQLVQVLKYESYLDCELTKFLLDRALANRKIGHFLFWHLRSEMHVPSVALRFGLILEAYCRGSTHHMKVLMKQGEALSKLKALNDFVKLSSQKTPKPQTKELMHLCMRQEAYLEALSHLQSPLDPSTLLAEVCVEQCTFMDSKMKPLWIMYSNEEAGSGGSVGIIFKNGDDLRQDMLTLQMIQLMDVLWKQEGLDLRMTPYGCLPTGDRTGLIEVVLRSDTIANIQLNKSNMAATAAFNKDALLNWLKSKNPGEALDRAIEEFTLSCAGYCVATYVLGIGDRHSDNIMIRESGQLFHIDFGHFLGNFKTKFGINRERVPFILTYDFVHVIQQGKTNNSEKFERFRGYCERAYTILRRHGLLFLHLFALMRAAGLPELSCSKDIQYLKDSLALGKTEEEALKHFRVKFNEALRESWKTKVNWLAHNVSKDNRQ
T1 sequence (P48736 whole entry, looked up, canonical isoform): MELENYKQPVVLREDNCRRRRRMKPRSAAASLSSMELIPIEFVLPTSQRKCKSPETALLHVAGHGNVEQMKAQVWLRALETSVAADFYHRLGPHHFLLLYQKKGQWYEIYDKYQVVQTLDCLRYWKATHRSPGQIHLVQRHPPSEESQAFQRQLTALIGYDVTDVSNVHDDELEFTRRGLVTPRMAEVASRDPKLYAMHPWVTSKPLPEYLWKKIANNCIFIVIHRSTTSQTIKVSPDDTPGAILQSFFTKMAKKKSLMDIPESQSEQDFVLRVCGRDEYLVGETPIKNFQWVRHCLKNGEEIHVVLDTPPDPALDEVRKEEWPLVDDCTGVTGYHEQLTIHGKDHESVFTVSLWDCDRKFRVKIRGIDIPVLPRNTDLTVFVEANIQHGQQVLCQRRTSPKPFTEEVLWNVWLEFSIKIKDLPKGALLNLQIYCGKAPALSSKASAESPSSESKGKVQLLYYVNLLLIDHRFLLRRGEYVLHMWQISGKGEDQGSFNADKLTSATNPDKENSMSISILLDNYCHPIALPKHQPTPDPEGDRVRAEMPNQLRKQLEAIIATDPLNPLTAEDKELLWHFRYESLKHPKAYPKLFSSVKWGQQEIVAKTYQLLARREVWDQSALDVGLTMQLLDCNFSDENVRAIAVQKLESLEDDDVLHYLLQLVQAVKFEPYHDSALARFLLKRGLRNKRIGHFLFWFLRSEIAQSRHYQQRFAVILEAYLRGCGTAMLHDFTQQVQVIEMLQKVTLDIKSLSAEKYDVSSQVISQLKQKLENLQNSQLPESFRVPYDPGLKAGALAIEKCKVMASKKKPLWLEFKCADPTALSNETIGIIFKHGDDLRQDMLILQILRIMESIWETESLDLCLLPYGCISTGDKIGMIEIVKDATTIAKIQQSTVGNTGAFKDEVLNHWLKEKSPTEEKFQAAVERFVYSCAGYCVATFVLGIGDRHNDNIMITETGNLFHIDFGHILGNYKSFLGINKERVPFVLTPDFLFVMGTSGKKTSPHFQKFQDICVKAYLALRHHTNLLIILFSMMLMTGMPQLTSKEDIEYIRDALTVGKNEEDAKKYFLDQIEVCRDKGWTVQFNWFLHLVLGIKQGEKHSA

Series [2] deals with Phosphatidylinositol 4,5-bisphosphate 3-kinase catalytic subunit gamma isoform (Mus musculus, UniProt Q9JHG7). Kind of series: Inhibition of PI3Kgamma in C5a-stimulated mouse RAW 264 cells assessed as inhibition of AKT phosphorylation at Ser473 residue Pretreated for 15 mins followed by C5a stimulation measured after 3 mins by HTRF assay. It is filed as cell-based. Background: Time-resolved FRET reads energy transfer from a long-lived donor to a nearby acceptor.
Chain of Phosphatidylinositol 4,5-bisphosphate 3-kinase catalytic subunit gamma isoform (Q9JHG7 whole entry, canonical isoform): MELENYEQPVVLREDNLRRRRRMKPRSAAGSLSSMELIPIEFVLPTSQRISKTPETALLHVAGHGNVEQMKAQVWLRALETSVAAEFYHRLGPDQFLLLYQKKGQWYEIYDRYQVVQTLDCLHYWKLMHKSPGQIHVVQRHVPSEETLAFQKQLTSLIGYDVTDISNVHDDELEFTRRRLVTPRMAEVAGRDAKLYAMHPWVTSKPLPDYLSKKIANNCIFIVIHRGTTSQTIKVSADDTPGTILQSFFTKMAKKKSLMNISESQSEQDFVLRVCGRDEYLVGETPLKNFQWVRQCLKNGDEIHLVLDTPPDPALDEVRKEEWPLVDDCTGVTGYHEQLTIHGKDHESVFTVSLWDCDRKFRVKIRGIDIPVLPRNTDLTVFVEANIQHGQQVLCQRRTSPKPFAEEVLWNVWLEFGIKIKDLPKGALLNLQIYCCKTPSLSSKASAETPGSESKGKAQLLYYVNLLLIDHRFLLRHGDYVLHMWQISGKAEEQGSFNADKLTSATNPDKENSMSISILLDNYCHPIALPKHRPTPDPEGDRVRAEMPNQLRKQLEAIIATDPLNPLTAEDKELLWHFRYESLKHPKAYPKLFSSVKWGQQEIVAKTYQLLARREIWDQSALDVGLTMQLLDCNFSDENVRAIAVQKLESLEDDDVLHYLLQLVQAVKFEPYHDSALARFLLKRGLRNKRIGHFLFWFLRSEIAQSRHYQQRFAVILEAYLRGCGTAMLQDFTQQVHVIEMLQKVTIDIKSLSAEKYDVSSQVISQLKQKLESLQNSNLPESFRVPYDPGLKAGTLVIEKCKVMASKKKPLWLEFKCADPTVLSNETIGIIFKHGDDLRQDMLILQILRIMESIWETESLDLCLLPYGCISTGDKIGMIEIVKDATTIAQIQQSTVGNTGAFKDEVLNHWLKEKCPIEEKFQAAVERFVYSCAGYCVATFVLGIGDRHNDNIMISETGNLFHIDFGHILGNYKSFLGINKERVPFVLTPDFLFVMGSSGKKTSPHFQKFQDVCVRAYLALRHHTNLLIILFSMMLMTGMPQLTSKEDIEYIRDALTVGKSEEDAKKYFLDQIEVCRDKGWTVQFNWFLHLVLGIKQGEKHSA

Series [3] can be described thus: Oral bioavailability in rat at 1.0 mg/kg. Conditions: in vivo. It is filed as ADME, organism-based.
The nature of series [4]: Solubility of compound in at pH 7.4 at 1 mg/ml using crystalline form of sample incubated for 24 hrs by HPLC MS analysis. The series is classed as physicochemical.
Series [5] in a line: Distribution coefficient, logD of compound at pH 7.4. The series is classed as physicochemical. Particulars: octanol/water.
Series [6] addresses Phosphatidylinositol 4-phosphate 3-kinase C2 domain-containing subunit alpha (Homo sapiens, UniProt O00443). Kind of series: Inhibition of PIK3C2A (unknown origin) assessed as reduction in substrate phosphorylation by FRET Adapta assay.
In series [7] the target is T2, Phosphatidylinositol 3-kinase C2 domain-containing subunit gamma (Homo sapiens, UniProt O75747).
T2 sequence (O75747 whole entry): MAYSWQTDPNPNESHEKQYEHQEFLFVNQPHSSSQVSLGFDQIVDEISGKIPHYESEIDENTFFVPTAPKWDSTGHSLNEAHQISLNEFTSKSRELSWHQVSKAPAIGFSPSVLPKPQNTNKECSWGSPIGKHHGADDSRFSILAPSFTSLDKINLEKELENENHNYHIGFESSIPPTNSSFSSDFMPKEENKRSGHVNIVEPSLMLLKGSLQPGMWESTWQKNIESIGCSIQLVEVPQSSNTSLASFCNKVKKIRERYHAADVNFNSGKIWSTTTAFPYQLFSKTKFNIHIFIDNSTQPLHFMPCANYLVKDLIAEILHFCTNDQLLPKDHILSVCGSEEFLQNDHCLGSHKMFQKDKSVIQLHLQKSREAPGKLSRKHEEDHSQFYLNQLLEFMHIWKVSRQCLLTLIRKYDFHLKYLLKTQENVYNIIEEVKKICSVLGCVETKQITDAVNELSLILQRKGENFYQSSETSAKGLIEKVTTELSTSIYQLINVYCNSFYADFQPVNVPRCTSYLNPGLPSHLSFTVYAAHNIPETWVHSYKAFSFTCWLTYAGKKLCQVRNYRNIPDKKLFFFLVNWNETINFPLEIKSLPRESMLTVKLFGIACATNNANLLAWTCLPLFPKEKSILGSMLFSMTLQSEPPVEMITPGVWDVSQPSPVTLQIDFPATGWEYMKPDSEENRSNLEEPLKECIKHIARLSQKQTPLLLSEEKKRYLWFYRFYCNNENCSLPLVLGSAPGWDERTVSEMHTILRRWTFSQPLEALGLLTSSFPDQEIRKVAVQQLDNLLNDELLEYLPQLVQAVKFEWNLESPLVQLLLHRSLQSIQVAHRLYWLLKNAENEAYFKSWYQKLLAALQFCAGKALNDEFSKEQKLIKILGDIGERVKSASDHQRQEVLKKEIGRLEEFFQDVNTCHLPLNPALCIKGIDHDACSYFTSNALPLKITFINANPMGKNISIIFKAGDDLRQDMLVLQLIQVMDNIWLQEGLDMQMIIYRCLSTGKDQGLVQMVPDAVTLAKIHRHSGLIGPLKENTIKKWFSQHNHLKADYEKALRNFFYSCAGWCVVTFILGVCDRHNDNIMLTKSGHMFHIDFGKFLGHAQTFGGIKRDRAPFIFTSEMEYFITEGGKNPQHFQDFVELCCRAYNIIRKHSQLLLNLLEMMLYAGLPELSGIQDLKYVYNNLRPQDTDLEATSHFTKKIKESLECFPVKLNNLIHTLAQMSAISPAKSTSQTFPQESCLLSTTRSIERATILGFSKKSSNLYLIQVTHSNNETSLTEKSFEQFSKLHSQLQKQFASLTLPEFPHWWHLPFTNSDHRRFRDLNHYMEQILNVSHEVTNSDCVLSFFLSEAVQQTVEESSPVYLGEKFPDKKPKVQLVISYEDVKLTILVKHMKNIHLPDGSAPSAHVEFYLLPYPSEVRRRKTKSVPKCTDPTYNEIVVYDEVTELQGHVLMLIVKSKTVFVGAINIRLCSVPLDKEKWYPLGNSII
Kind of series: Inhibition of PIK3C2G (unknown origin) assessed as reduction in substrate phosphorylation by FRET Adapta assay.

Series [8] concerns Rattus norvegicus. Description: Antiinflammatory activity in ovalbumin induced Brown Norway rat assessed as reduction in eosinophil counts in lung lavage fluid at 240 microg/kg administered using nebulizer for 12 hrs prior to ovalbumin challenge measured after 48 hrs by flow cytometry. Conditions: dose 240.0 µg/kg, time 60.0 hrs. It is filed as functional, organism-based.
Series [9] concerns Rattus norvegicus. Description: Antiinflammatory activity in ovalbumin induced Brown Norway rat assessed as reduction in eosinophil counts in lung lavage fluid at 240 microg/kg administered using nebulizer for 24 hrs prior to ovalbumin challenge measured after 48 hrs by flow cytometry. It is filed as functional, organism-based. Conditions: dose 240.0 µg/kg, time 72.0 hrs.
The target of series [10] is T1, Phosphatidylinositol 4,5-bisphosphate 3-kinase catalytic subunit delta isoform/gamma isoform (Homo sapiens). Description: Inhibition of PI3kgamma/delta in eotaxin-3-stimulated human eosinophils derived from asthmatic patient assessed as reduction in CD11b expression pre-incubated for 30 mins followed by eotaxin-3 stimulation for 30 mins by flow cytometry. The series is classed as tissue-based. Conditions: Eosinophil, time 60.0 min.

Chain of Phosphatidylinositol 4-phosphate 3-kinase C2 domain-containing subunit alpha (O00443 whole entry, the tested form may be a part): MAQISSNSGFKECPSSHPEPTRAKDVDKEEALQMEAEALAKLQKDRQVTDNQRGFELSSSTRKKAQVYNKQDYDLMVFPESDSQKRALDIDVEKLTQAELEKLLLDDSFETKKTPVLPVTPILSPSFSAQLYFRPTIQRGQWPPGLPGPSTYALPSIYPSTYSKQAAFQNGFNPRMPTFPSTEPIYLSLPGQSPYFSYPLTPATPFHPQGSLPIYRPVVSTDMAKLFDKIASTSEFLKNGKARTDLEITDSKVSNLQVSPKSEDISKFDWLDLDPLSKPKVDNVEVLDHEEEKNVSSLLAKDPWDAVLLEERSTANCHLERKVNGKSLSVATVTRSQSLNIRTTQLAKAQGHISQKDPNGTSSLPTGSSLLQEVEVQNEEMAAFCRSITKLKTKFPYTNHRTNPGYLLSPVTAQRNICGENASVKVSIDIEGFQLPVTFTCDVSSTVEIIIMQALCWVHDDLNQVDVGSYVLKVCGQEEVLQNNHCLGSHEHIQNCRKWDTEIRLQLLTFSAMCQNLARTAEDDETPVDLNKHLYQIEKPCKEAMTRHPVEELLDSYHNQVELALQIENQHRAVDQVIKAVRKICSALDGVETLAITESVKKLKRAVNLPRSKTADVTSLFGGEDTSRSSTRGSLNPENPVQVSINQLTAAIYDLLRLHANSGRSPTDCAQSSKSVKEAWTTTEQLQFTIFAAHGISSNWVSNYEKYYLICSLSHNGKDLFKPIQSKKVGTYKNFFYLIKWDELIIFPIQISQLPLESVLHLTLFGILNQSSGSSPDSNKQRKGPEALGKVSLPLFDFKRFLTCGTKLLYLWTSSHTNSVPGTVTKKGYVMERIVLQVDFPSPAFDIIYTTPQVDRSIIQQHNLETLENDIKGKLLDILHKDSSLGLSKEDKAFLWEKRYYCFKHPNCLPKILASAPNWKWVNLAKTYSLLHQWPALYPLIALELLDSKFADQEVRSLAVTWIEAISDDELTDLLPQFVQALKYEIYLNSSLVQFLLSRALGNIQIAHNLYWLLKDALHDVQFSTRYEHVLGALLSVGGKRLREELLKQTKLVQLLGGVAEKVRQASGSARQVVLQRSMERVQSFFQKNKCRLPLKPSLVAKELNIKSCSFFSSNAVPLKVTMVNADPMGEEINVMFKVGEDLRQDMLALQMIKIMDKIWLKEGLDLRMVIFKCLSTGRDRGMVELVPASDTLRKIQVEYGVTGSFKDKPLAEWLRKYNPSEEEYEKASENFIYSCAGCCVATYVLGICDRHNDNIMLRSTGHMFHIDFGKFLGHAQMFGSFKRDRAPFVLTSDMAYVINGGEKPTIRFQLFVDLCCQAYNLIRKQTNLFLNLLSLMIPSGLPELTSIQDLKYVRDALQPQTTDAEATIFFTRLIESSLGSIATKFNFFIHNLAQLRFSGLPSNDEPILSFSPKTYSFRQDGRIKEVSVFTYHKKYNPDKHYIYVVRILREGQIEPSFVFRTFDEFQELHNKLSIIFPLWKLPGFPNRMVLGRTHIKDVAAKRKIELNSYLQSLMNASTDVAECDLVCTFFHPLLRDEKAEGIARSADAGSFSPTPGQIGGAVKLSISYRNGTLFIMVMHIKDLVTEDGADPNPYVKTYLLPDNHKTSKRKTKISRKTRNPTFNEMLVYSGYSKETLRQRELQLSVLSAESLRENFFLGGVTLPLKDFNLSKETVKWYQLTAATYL

The term IC50 denotes the point on the concentration scale where inhibition reaches its midpoint. The bioavailability is the share of a dose that reaches the circulation, judged against a reference dose that is usually intravenous. A low value points to poor availability. The thermodynamic solubility is the concentration in solution at equilibrium with solid. As a reminder, the logD is lipophilicity at a set pH, counting ionised and neutral species. As for `Cc1nc(Nc2cccc(N3CCCC3=O)n2)sc1-c1cc2c(c(S(C)(=O)=O)c1)C(=O)N([C@@H](C)C1CC1)C2` [AZD-8154], the outcome in series [1] and in series [10] was Active. The values for the IC50 in series [2], in series [6] and in series [7] were 0.000794 µM, 3.98 µM and 0.0631 µM, respectively. This compound displayed a bioavailability in [3] of less than 4%. Also, in series [4], the thermodynamic solubility at 24 h turned out to be 0.054 µM (≈ 0.0298 µg/mL). This compound yielded a logD in series [5] of 4.4. Further, the result in the series with Rattus norvegicus [8] and with Rattus norvegicus [9] was inactive.
